Patent US20150164957A1, “CONVERSION OF CARDIOMYOCYTES INTO FAST CONDUCTING CARDIOMYOCYTES OR SLOW CONDUCTING NODAL CELLS” (The University of Chicago, priority 2012, published 2015)

Tests used:
[1] = target: Nav1.8 (Homo sapiens, UniProt Q9Y5Y9); settings: at the dose used; cited from earlier work
[2] = tested on: Nav1.8; settings: after administration of A-803467; cited from earlier work
[3] = tested on: tamoxifen-treated Tbx5^minKCreERT2 and Tbx5^fl/fl mice; assay: Invasive EP studies (intracardiac recordings) following atropine administration; type: in vivo, mouse; settings: for AH (AtrioHisian interval) / HV (Hisioventricular interval) / Hd (His interval duration) / SCL (sinus cycle length): Post-Atropine (20 mg/kg), Mean +/- SD
Procedure: Electrophysiology Studies. Electrophysiology studies were performed in collaboration with Fang Liu, Kurt Schillinger, and Vic Patel at The University of Pennsylvania. Detailed protocols for in vivo electrophysiology studies have been previously described (Liu, et al., 2008). 10-12 week old mice were anesthetized with pentobarbital (33 mg/kg ip) and a 1.1-Fr octapolar electrode catheter (Millar; EPR-800) was advanced via a right jugular venous cut-down to record right atrial, His bundle, right ventricular potentials and perform programmed electrical stimulation. For studies involving atropine, surface ECG and intracardiac recordings were obtained, then repeated after mice were injected with 20 mg/kg atropine.
The autonomic nervous system can play an important role in modulating cardiac conduction. Specifically, activation of the sympathetic nervous system can increase heart rate, contractility, and accelerate conduction through the AV node, while parasympathetic stimulation via the vagus nerve can act at the SA and AV nodes to decrease heart rate and slow AV conduction. To determine whether slowed conduction in Tbx5^minkCreERT2 mice was secondary to increased vagal tone, the inventors administered atropine, a cholinergic antagonist, to tamoxifen-treated Tbx5^minKCreERT2 and Tbx5^fl/fl mice and evaluated conduction intervals by EP studies.

[4] = tested on: Mice with hyperactivation of Nav1.8; settings: cited from earlier work

Chain of Nav1.8 (Homo sapiens, UniProt Q9Y5Y9) (Q9Y5Y9 whole entry): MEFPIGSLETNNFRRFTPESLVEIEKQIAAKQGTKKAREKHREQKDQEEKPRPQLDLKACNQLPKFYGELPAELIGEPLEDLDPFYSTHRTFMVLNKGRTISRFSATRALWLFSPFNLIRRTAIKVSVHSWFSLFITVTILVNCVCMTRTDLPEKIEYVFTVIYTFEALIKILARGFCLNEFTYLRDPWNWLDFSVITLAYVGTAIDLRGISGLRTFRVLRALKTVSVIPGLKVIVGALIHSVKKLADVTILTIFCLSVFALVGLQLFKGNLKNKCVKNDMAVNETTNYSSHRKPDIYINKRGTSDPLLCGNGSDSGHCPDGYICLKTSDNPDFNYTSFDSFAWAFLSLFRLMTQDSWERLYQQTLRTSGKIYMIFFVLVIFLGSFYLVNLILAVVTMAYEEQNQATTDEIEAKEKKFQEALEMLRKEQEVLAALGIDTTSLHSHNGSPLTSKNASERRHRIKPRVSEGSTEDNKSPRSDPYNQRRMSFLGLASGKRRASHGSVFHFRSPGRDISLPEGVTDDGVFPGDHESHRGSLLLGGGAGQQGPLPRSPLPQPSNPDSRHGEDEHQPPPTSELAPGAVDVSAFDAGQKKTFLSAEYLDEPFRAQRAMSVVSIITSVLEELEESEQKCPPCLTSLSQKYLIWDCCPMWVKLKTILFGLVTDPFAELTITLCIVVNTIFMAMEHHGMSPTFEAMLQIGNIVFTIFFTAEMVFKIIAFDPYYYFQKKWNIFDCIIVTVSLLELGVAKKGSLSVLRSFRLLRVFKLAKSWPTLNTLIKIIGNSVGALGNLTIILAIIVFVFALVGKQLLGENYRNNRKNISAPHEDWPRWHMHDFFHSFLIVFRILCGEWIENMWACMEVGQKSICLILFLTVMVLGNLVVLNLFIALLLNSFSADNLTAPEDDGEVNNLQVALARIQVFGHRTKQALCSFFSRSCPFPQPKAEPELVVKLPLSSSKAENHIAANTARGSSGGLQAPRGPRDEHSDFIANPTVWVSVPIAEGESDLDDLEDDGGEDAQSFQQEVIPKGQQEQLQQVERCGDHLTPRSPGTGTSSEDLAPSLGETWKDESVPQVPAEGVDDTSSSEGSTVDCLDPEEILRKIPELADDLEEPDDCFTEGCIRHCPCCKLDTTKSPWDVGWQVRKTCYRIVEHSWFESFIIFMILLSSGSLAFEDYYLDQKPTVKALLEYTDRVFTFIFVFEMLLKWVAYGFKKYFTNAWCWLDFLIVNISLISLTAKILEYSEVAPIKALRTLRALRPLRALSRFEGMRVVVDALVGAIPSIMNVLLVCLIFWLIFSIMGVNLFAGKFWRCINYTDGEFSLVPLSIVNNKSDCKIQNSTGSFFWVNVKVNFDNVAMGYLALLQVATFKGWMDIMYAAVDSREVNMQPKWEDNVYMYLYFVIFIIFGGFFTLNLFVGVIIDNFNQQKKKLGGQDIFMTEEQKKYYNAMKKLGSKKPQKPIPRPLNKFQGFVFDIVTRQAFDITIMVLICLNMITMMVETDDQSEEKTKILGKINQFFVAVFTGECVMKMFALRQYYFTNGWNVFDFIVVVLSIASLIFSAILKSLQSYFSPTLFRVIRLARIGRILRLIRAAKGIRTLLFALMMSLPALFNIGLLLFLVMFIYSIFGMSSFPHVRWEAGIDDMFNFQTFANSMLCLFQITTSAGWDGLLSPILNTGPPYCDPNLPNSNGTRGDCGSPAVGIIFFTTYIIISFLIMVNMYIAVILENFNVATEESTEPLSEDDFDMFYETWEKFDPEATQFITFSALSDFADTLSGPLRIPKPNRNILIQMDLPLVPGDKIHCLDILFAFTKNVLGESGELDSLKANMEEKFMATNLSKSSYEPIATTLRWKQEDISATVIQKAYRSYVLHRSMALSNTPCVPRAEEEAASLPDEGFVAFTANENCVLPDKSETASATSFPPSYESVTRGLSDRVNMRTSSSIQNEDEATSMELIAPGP

Compound | Activity against Nav1.8 relative to Nav1.5 [1] [fold] | H-V interval [2] | P-R interval [2] | QRS interval [2] | AH (AtrioHisian interval) ([3]; Tbx5^fl/fl mice (n = 3)) [ms] | HV (Hisioventricular interval) ([3]; Tbx5^fl/fl mice (n = 3)) [ms] | Hd (His interval duration) ([3]; Tbx5^fl/fl mice (n = 3)) [ms] | SCL (sinus cycle length) ([3]; Tbx5^fl/fl mice (n = 3)) [ms] | AH (AtrioHisian interval) ([3]; Tbx5^minKCreERT2 mice (n = 3)) [ms] | HV (Hisioventricular interval) ([3]; Tbx5^minKCreERT2 mice (n = 3)) [ms] | Hd (His interval duration) ([3]; Tbx5^minKCreERT2 mice (n = 3)) [ms] | SCL (sinus cycle length) ([3]; Tbx5^minKCreERT2 mice (n = 3)) [ms] | Effect of cholinergic blockade on conduction ([3]; Tbx5^minKCreERT2 or Tbx5^fl/fl mice, EP studies) | Effect on sinus bradycardia following scruffing [4]
COc1cc(NC(=O)c2ccc(-c3ccc(Cl)cc3)o2)cc(OC)c1 [A-803467] | 100 | increased | increased | increased | – | – | – | – | – | – | – | – | – | –
CN1[C@@H]2CC[C@H]1C[C@@H](OC(=O)C(CO)c1ccccc1)C2 (some centres unmarked) [Atropine, atropine] | – | – | – | – | 28.0 ± 9.9 | 9.0 ± 3.2 | 3.7 ± 1.5 | 141.3 ± 30.9 | 35.7 ± 3.6 | 26.0 ± 2.4 | 11.7 ± 2.5 | 146.3 ± 11.6 | did not result in accelerated conduction | blocked
